Molecular target: T1, CCK-1 receptor (Homo sapiens, UniProt P32238)
T1 construct: expressed in transfected cells; membranes
T1 sequence (P32238 1-428): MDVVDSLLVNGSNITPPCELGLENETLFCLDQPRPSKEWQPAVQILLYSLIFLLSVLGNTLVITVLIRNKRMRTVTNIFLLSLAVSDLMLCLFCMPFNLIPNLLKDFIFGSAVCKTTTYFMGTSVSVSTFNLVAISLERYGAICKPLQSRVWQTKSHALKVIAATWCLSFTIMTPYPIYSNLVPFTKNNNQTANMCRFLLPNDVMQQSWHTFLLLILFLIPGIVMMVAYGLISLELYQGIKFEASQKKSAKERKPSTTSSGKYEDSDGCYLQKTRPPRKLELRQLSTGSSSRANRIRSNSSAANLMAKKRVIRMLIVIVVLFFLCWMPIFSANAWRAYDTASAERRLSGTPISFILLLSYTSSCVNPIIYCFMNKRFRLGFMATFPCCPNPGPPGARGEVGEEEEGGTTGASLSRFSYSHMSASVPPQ
Test: CCK-1 receptor radioligand binding assay ([125I]-BH-CCK-8S displacement, membranes of stably transfected CHO-K1 cells)
Details: membranes of CHO-K1 cells stably transfected with CCK-1 receptor, 0.3 μM PD-134,308 present
Procedure: CHO-K1 cells that had undergone-stable transfection with the CCK-1 receptor were grown in DMEM supplemented with L-glutamine (2 mM), penicillin (50 units/mL) and streptomycin (50 μg/mL). Cells were cultured under continuous G418 selection (2 mM) and were harvested using a rubber cell scraper. CHO-K1 cells were sub-cultured a maximum of ten times before being reseeded from the original stocks.
Membranes were prepared from the stably transfected CHO-K1 cells. Frozen cell pellets (−40° C.) were thawed in 14 mL of buffer A (10 mM HEPES, 130 mM NaCl, 4.7 mM KCl, 5 mM MgCl, 1 mM EGTA and 15.4 mg/100 mL bacitracin at pH 7.2), adapted from Harper et al. (Br. J. Pharmacol. (1996) 118, pp 1717-1726). The thawed pellets were homogenized using a Polytron PT-10 (7×1 s). The homogenates were centrifuged for 5 min at 1500 rpm (600×g), and the resulting pellets were discarded. The supernatants were re-centrifuged in order to collect the receptor-membrane pellets (25 min 15,000 rpm; 39,800×g), which were re-suspended in buffer A.
All assays were conducted in 96-well plates (GF/B millipore filter plates) using buffer A, with 0.3 μM PD-134,308, for the dilutions. The CCK-2 receptor ligand was included to eliminate the contribution of this receptor subtype to the binding. For the optimal cell number determination experiments 20 pM [1251]-BH—CCK-8S (50 μL 60 pM solution) was incubated with a range of cell concentrations (2.5×105 to 12.5×10^5 cells/well) in a total volume of 150 μL. Total binding of [1251]-BH—CCK-8S was determined in the presence of 15 μL of buffer A. Non-specific binding of [1 251]-BH—CCK-8S was determined in the presence of 15 μL of 100 μM 2-naphthalenesulphonyl L-aspartyl-(2-phenethyl)amide (2-NAP: see R. A. Hull et al., Br. J. Pharmacol. (1993) 108, pp 734-740), a CCK-1 receptor selective antagonist that is structurally unrelated to the radioligand [1251]-BH—CCK-8S. The assay preparation was incubated for 1 h at 21±3° C., and then the assay was terminated upon rapid filtration of the preparation under reduced pressure. The loaded filters were washed three times using undiluted PBS (100 μL), and then the residues were transferred to 5 mL scintillation tubes. Bound radioactivity was determined using a gamma counter (count time=1 min). From these experiments a cell concentration of 1 pellet in 40 mL of buffer (2.5×10^6 cells/mL) was chosen for use in other assays (below). To validate the radioligand concentration and incubation time for the assay, saturation and kinetic binding studies were also conducted (see M. F. Morton, The Pharmacological Characterization of Cholecystokinin Receptors in the Human Gastrointestinal Tract. PhD Thesis, University of London, 2000). The affinity of novel compounds was estimated by incubating membrane preparations with 15 μL of competing ligand (0.1 pM-1 mM) for 60 min at 21±3° C. The assay was then terminated according to the procedure outlined above.
The pKi values were determined using the equation of Cheng and Prusoff (Biochem. Pharmacol. (1973) 22, pp 3099-3108): [formula]
To circumvent problems associated with computer-assisted data analysis of compounds with low affinity, the data obtained in the current study were weighted according to a method described by Morton (2000). In brief, 100% and 0% specific binding were defined independently using total binding and binding obtained in the presence of a high concentration of the reference antagonist, 2-NAP.

## COc1cccc(C(Cc2cc(-c3ccc(C)cc3)n(-c3ccc(Cl)cc3)n2)C(=O)O)c1 (stereo not drawn) [Example 157]
  Ki: 12.6 nM

## COc1ccc(-n2nc(/C=C(/C(=O)O)c3cccc(C)c3)cc2-c2ccc(Cl)c(Cl)c2)cc1 [Example 75]
  Ki: 79.4 nM

## Cc1cccc([C@@H](Cc2cc(-c3ccc4ccccc4c3)n(-c3ccccn3)n2)C(=O)O)c1 [Example 93]
  Ki: 251 nM

## Cc1cccc(C(Cc2cc(-c3ccc4ccccc4c3)n(-c3cccc[n+]3[O-])n2)C(=O)O)c1 (stereo not drawn) [Example 105]
  Ki: 316 nM

## Cc1ccc(-n2nc(CC(C(=O)O)c3cccc(C)c3)cc2-c2ccc(N(C)C(C)C)cc2)cc1 (stereo not drawn) [Example 101]
  Ki: 15.8 nM

## O=C(O)/C(=C\c1cc(-c2ccc(Cl)c(Cl)c2)n(-c2cc(Cl)ccc2Cl)n1)c1cccc(Cl)c1 [Example 111]
  Ki: 3.98 nM

## Cc1ccc(-c2cc(CC(C(=O)O)c3cccc(Cl)c3)nn2-c2ccc(Cl)c(Cl)c2)cc1 (stereo not drawn) [Example 182]
  Ki: 12.6 nM

## Cc1ccc(-n2nc(CC(C(=O)O)c3cccc(C)c3)cc2-c2ccc(N(C)C)cc2)cc1 (stereo not drawn) [Example 86]
  Ki: 3.98 nM

## O=C(O)/C(=C\c1cc(-c2ccc(Cl)c(Cl)c2)n(-c2ccccn2)n1)c1cccc(Cl)c1 [Example 110]
  Ki: 12.6 nM

## Cc1cccc(C(Cc2cc(-c3ccc4ccccc4c3)[nH]n2)C(=O)O)c1 (stereo not drawn) [Example 47]
  Ki: 200 nM

## COc1ccc(-n2nc(CC(C(=O)O)c3coc4ccccc34)cc2-c2ccc(Cl)c(Cl)c2)cc1 (stereo not drawn) [Example 261]
  Ki: 12.6 nM

## Cc1ccc(-n2nc(CC(C(=O)O)c3cccc(C)c3)cc2-c2ccc(Br)cc2)cc1 (stereo not drawn) [Example 77]
  Ki: 15.8 nM

## COc1ccc(-n2nc(CC(C(=O)N3CCN(C)CC3)c3cccc(C)c3)cc2-c2ccc(C)cc2)cc1 (stereo not drawn) [Example 68]
  Ki: 251 nM

## O=C(O)/C(=C/c1cc(-c2ccc3c(c2)OCO3)n(-c2cc(Cl)ccc2Cl)n1)c1cccc(Cl)c1 [Example 123]
  Ki: 251 nM

## COc1ccc(-n2nc(CC(C(=O)O)c3cn(C)c4ccccc34)cc2-c2ccc(C)cc2)cc1 (stereo not drawn) [Example 72]
  Ki: 50.1 nM

## Cc1ccc(-c2cc(CC(C(=O)O)c3cccc(C(F)(F)F)c3F)nn2-c2ccc(Cl)c(Cl)c2)cc1 (stereo not drawn) [Example 21]
  Ki: 158 nM

## COc1cccc(C(Cc2cc(-c3ccc(C)cc3)n(-c3ccc(Cl)c(Cl)c3)n2)C(=O)O)c1 (stereo not drawn) [Example 42]
  Ki: 6.31 nM

## Cc1ccc(-n2nc(CC(C(=O)O)c3cccc(C)c3)cc2-c2ccc(N3CCCCC3)cc2)cc1 (stereo not drawn) [Example 349]
  Ki: 79.4 nM

## COc1ccc(-n2nc(CC(C(=O)O)c3cccc(F)c3F)cc2-c2ccc(Cl)c(Cl)c2)cc1 (stereo not drawn) [Example 18]
  Ki: 39.8 nM

## COc1ccc(-n2nc(C[C@@H](C(=O)O)c3cccc4ccccc34)cc2-c2ccc3c(c2)OCO3)cc1 [Example 28]
  Ki: 1260 nM

## COc1ccc(-n2nc(/C=C(\C(=O)O)c3cccc(Cl)c3)cc2-c2ccc(Cl)c(Cl)c2)cc1 [Example 115]
  Ki: 6.31 nM

## Cc1ccc(-c2cc(CC(C(=O)O)c3cccc4ccccc34)nn2-c2ccc(Cl)c(Cl)c2)cc1 (stereo not drawn) [Example 181]
  Ki: 15.8 nM

## COc1ccc(-n2nc(C[C@H](CS(=O)(=O)c3ncn[nH]3)c3cccc(C)c3)cc2-c2ccc(Cl)c(Cl)c2)cc1 [Example 138]
  Ki: 31.6 nM

## Cc1cccc(C(Cc2cc(-c3ccc4ccccc4c3)n(C3CCCCC3)n2)C(=O)O)c1 (stereo not drawn) [Example 51]
  Ki: 5.01 nM

## COc1ccc(-n2nc(/C=C(\C(=O)O)c3cccc(C)c3)cc2-c2ccc(Cl)c(Cl)c2)cc1 [Example 120]
  Ki: 10 nM

## COc1ccc(-n2nc(/C=C(/C(=O)O)c3ccc(C)cc3)cc2-c2ccc(Cl)c(Cl)c2)cc1 [Example 363]
  Ki: 794 nM

## COc1cccc(C(Cc2cc(-c3ccc(C)cc3)n(-c3ccc(C)cc3)n2)C(=O)O)c1 (stereo not drawn) [Example 170]
  Ki: 7.94 nM

## Cc1cccc(C(Cc2cc(-c3ccc4ccccc4c3)n(-c3ccc(C(F)(F)F)cn3)n2)C(=O)O)c1 (stereo not drawn) [Example 80]
  Ki: 12.6 nM

## Cc1cccc(C(Cc2cc(-c3ccc(Cl)c(Cl)c3)n(-c3ccc(C(C)(C)C)cc3)n2)C(=O)O)c1 (stereo not drawn) [Example 275]
  Ki: 20 nM

## Cc1ccc(-c2cc(CC(C[S+]([O-])c3ncn[nH]3)c3cccc(C)c3)nn2-c2ccc(C)cc2)cc1 (stereo not drawn) [Example 136]
  Ki: 6.31 nM

## COc1ccc(-n2nc(CC(C(=O)O)c3cccnc3)cc2-c2ccc(Cl)cc2)cc1 (stereo not drawn) [Example 208]
  Ki: 3160 nM

## COc1ccc(-c2cc(C[C@@H](C(=O)O)c3cccc(OC)c3)nn2-c2ccc(OC)cc2)cc1 [Example 31]
  Ki: 1000 nM

## COc1ccc(-c2cc(C[C@H](C(=O)O)c3cccc(OC)c3)nn2-c2ccc(OC)cc2)cc1 [Example 32]
  Ki: 63.1 nM

## COc1ccc(-n2nc(C[C@H](c3cccc(C)c3)c3nnn[nH]3)cc2-c2ccc(Cl)c(Cl)c2)cc1 [Example 131]
  Ki: 126 nM

## Cc1cccc(C(Cc2cc(-c3ccc4c(c3)OCO4)n(-c3ccc(Cl)cc3Cl)n2)C(=O)O)c1 (stereo not drawn) [Example 276]
  Ki: 6.31 nM

## Cc1ccc(-c2cc(CC(C(=O)O)c3cccc(C)c3)nn2-c2ccc(C)cc2)cc1 (stereo not drawn) [Example 40]
  Ki: 7.94 nM

## COc1ccc(-n2nc(CC(C(=O)N(C)C)c3cccc(C)c3)cc2-c2ccc(C)cc2)cc1 (stereo not drawn) [Example 66]
  Ki: 20 nM

## Cc1ccc(-c2cc(CC(C(=O)O)c3cccc(I)c3)nn2-c2ccc(Cl)c(Cl)c2)cc1 (stereo not drawn) [Example 24]
  Ki: 20 nM

## Cc1ccc(-c2cc(CC(CS(=O)(=O)c3ncn[nH]3)c3cccc(C)c3)nn2-c2ccc(C)cc2)cc1 (stereo not drawn) [Example 137]
  Ki: 10 nM

## Cc1ccc(-n2nc(CC(C(=O)O)c3cccc(C)c3)cc2-c2ccc3ncccc3c2)cc1 (stereo not drawn) [Example 106]
  Ki: 63.1 nM

## COc1ccc(-n2nc(CC(C(=O)O)c3c[nH]c4ccccc34)cc2-c2ccc(C)cc2)cc1 (stereo not drawn) [Example 71]
  Ki: 25.1 nM

## COc1ccc(-n2nc(CC(c3cccc(C)c3)c3nnn[nH]3)cc2-c2ccc(C)cc2)cc1 (stereo not drawn) [Example 74]
  Ki: 6.31 nM

## Cc1ccc(-c2cc(CC(C(=O)O)c3cccc4sccc34)nn2-c2ccc(Cl)c(Cl)c2)cc1 (stereo not drawn) [Example 190]
  Ki: 10 nM

## Cc1cccc(C(Cc2cc(-c3cccc4ccccc34)nn2-c2ccccn2)C(=O)O)c1 (stereo not drawn) [Example 79]
  Ki: 126 nM

## Cc1cccc(C(Cc2cc(-c3ccc(Cl)c(Cl)c3)nn2C)C(=O)O)c1 (stereo not drawn) [Example 48]
  Ki: 79.4 nM

## Cc1cccc(C(Cc2cc(-c3ccc4ccccc4c3)nn2Cc2ccncc2)C(=O)O)c1 (stereo not drawn) [Example 88]
  Ki: 39.8 nM

## COc1ccc(-n2nc(CC(C(=O)O)c3cccc(Cl)c3)cc2-c2ccc3c(c2)OCO3)cc1 (stereo not drawn) [Example 221]
  Ki: 15.8 nM

## COc1ccc(-n2nc(CC(C(=O)O)c3ccccc3C(F)(F)F)cc2-c2ccc(Cl)c(Cl)c2)cc1 (stereo not drawn) [Example 19]
  Ki: 31.6 nM

## O=C(O)/C(=C\c1cc(-c2ccc3c(c2)OCO3)n(-c2cc(Cl)ccc2Cl)n1)c1cccc(Cl)c1 [Example 122]
  Ki: 1.58 nM

## Cc1ccc(-c2cc(CC(CSc3ncn[nH]3)c3cccc(C)c3)nn2-c2ccc(C)cc2)cc1 (stereo not drawn) [Example 335]
  Ki: 31.6 nM

## Clc1cccc(C(Cc2cc(-c3ccc4c(c3)OCO4)n(-c3cc(Cl)ccc3Cl)n2)c2nnn[nH]2)c1 (stereo not drawn) [Example 132]
  Ki: 10 nM

Source: patent US20050020565A1, “CCK-1 receptor modulators” (priority 2003, published 2005)
